Measured values taken from patent US20120142750A1, “INDOLEAMINE 2,3-DIOXYGENASE PATHWAYS IN THE GENERATION OF REGULATORY T CELLS” (Regents of the University of Minnesota, priority 2005, published 2012).
“Also recorded” adds a separate entry of the source.

Columns and labels:
[1] = tested on: primed CD4+ T cells / naive CD4+ T cells; experiment: MLR assays of function of CpG-PDC or CpG-B cell primed CD4+ T cells; format: cell-based, human
Procedure: In vitro priming of naive CD4+ T cells. CD4+CD45RA+ naive T cells were primed with allogeneic PDCs or irradiated B cells (30 Gy) at a 10:1 ratio (e.g., 2×10^6 naive CD4+ T cells plus 2×105 PDCs per well in 24-well plates) with ODN 2216 or ODN 2006 present in RPMI 1640 medium supplemented with 10% human AB serum. 1 MT and/or KYN were added into CpG ODN-PDC or CpG ODN-B cell mediated naive CD4+ T cell priming cultures as indicated. In some experiments, blocking Abs against CD80, CD86, HLA-DR or the control IgG Ab (R&D Systems, Minneapolis, Minn.) were added to CpG-PDC-mediated naive CD4+ T cell priming cultures at a final Ab concentration ranging from 0.1 to 10 μg/ml. After 7 days, primed T cells in cultures were harvested, assessed for their surface phenotype, intracellular Foxp3 expression, and their function in MLR assays.
MLR assays. […] In all T cell proliferation assays, plates were incubated at 37° C. for 5 days and pulsed with 1 μCi of 3H-thymidine per well for the last 18 hours before harvesting. All determinations were carried out in triplicate and 3H-thymidine incorporation was determined.

OT-I and A1 T cells = experiment: Bystander-suppression assays (TDLN IDO+ DCs, OT-I, Tregs, A1 bystander cells); format: cell-based, mouse
Procedure: Isolation of tumor-draining lymph node DCs.
Bystander-suppression assays. All experiments were repeated 3-5 times unless otherwise indicated. OT-I cells were sorted as CD8^+ spleen cells, gated on the CD11c^NEGB220^NEG fraction to exclude DCs. Sorted DCs from TDLN were mixed with 1×10^5 responder cells at a 1:40 ratio in V-bottom culture wells (Nunc). […] Sorted CD4^+ A1 cells (1×10^5) and CD11c^+ DCs (1:40 ratio) from normal CBA spleen were added as bystander cells. […] For transwell assays, 96-Multiwell insert plates (1 uM pore size, BD Falcon) were used and the number of cells in all groups was doubled.
Feeder layer. Plasmacytoid DCs and Tregs have been reported to require survival factors to maintain viability and function in vitro.
Readouts for T cell proliferation. […] After 72 hours, assays were stained for CD4 vs CD8 and CFSE fluorescence analyzed gated on CD4^+ (A1) and CD8^+ (OT-I) populations.
Anti-CD3 proliferation and preactivation assays. […] For pre-activation studies, 2×10^4 Tregs were cultured with 1×10^5T-depleted spleen cells plus 0.1 ug/ml αCD3 antibody and 200 U/ml IL-2 (R&D Systems) for 48 hours.

[2] = tested on: Tregs from draining lymph nodes; experiment: Adoptive transfer of TDLN DCs and ex-vivo Treg assay; format: in vivo, mouse; details: sustained-release pellets; Tregs isolated after four days
Text: Adoptive transfer and ex-vivo Treg assay. The adoptive transfer model has been previously described (Munn et al., Immunit), 2005; 22:633-642; and Munn et al., J. Clin. Invest. 2004a; 114; 280-290). Briefly, DCs were sorted from TDLNs (total CD11c^+ cells), pulsed with […] (SEQ ID NO:1) peptide, and 5×10^4 DCs injected into anteriomedial thigh. For studies measuring ex vivo Treg suppressor activity, the recipient mice were pre-loaded with 5×10^6 sorted CD8^+ T-I cells. After four days, the inguinal LNs draining the site of DC injection were removed, and the CD4^+CD25^+ Tregs were isolated by FACS sorting. A titration of Tregs was added to readout assays, comprising CD4^+ A1 cells, CBA DCs, feeder layer, and H—Y peptide, all as described above. For CFSE proliferation studies, CD8^+ OT-I (wild-type or GCN2-KO background) were sorted, labeled with CFSE, and 5×10^6 cells injected intravenously into wild-type or GCN2-KO recipients. OVA-pulsed DCs from TDLNs were injected as above, and the inguinal (draining) LNs harvested after four days. LN cells were analyzed by FACS for CD8 vs 1B11 vs CFSE.

Cn1cc(C[C@@H](N)C(=O)O)c2ccccc21 [Inhibitor 1MT, 1-methyl-D-tryptophan]
T cell responses after priming with CpG ODN-activated B cells (control for nonspecific effects) ([1]; 1MT added to priming MLRs with IDO-negative B cells): no nonspecific effect | anergy/hyporesponsiveness of primed CD4+ T cells to subsequent alloantigen stimulation ([1]; 1MT present during priming): prevented CD4+ T cells from becoming anergic/hyporesponsive | suppressor/regulatory activity of PDC-primed T cells on proliferation of naive CD4+ T cells in MLR ([1]; 1MT present during priming): blocked the generation of suppressor/regulatory activity; also recorded: markedly reduced | Treg-mediated suppression of bystander cells when IDO blocked (OT-I and A1 T cells; 200 uM 1MT, without αCD3 mitogen): no suppression; also recorded: no spontaneous suppressor activity | αCD3-induced suppression in transwell experiments (OT-I and A1 T cells; 10-fold more Tregs, αCD3 mitogen added): not blocked | suppression of bystander cells by Tregs in transwell chambers (OT-I and A1 T cells; transwell, Tregs with IDO+ DCs in lower chamber): abrogated | ex vivo suppressor activity of Tregs from recipient mice given IDO+ DCs [2]: did not develop ex vivo suppressor activity
